Data on five molecules can be found in patent publication US20220143026A1, “TRIPLE COMBINATION TO TREAT B-CELL MALIGNANCIES” (TG Therapeutics, Inc., priority 2020, published 2022).

Where two headings read alike, the source gives them in different places. Marks after values point to notes of the source that are not given here.

What is called IC50 is the point on the concentration scale where inhibition reaches its midpoint.

The conditions of data set [1]: ibrutinib n=263, acalabrutinib n=266; cited from earlier work.
The test system of data set [2] is relapsed and refractory hematologic malignancies. Conditions: cited from earlier work.
Data set [3] in a line: Phase 1/1b clinical trial, safety. The note with it: for treatment discontinuation: Death: CLL, N = 20, death due to SARS-CoV-2 infection.
The conditions of data set [4]: in vivo; cited from earlier work.
The nature of data set [5]: comparison of atrial fibrillation adverse events between BTK inhibitors. Type of data set: in vivo, human. Conditions: N=106.
A short description of data set [6]: Phase 1/1b clinical trial, pharmacokinetics. It is filed as in vivo, human. Conditions: patients.
For data set [7], the target named is T1, BTK (Homo sapiens, UniProt Q06187). Conditions: read-out: kinase inhibition IC50 against BTK; cited from earlier work.
For data set [8] the following is noted: human, in vivo.
The target of another data set is EGFR (Homo sapiens, UniProt P00533). Conditions: cited from earlier work.
For data set [9], the system named is follicular lymphoma (FL) DOHH-2 cell line. Conditions: read-out: IC50, inhibition of growth; cited from earlier work.
In data set [10] the test system is mantle cell lymphoma (MCL) Mino cell line. The note with it: read-out: IC50, inhibition of growth; cited from earlier work.
A further data set concerns DLBCL SU-DHL-6 cell line. The note with it: read-out: IC50, inhibition of growth; cited from earlier work.
Data set [11] relates to IgM-activated BCR pathway. Conditions: DOHH-2 cells; cited from earlier work.
The next data set has as its system JEKO cells. The note with it: cited from earlier work.
Data set [12] has as its target T2, BTK (Mus musculus, UniProt P35991).
T2 construct: from tissue; host or cells: mouse spleen
The note with it: mice, single dose of TG-1701 at 12.5 mg/kg; cited from earlier work.

The subject of data set [13] is SU-DHL-6 (GCB-DLBCL), Mino (MCL), and OCI-Ly10 (ABC-DLBCL) xenograft models. The note with it: SU-DHL-6, Mino, OCI-Ly10 xenografts; cited from earlier work.
Data set [14] concerns B-NHL cell lines. The note with it: cited from earlier work.
The test system of data set [15] is B-NHL cell lines. The note with it: cited from earlier work. This is another data set of the same source.
The target in data set [16] is T1, BTK. The data set can be described thus: Phase 1/1b clinical trial, pharmacodynamics (BTK occupancy). It is filed as in vivo. More on the design: endogenous in cells.
A further data set deals with B-cell malignancies. The experiment in a line: Phase 1/1b clinical trial, efficacy (response).
A further data set deals with T3, CD20 antigen (Homo sapiens, UniProt P11836).
T3 sequence (P11836 1-297): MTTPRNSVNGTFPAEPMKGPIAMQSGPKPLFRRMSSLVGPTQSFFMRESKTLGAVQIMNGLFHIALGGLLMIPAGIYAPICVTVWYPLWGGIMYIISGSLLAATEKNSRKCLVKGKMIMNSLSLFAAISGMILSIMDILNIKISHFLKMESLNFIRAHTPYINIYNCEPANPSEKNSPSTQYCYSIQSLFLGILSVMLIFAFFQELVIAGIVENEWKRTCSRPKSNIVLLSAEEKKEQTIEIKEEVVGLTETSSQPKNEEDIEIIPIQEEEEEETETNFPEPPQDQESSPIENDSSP
The note with it: cited from earlier work.

Where [17] appears, read: patients with relapsed or refractory hematologic malignancies.
Setting [18] is: monotherapy 200 mg, CLL cohort, N = 20.
Where [19] appears, read: monotherapy 200 mg, MCL cohort, N = 18.
Setting [20] is: monotherapy 200 mg, WM cohort, N = 19.
The mark [21] stands for this setting: monotherapy dose escalation 100-400 mg, N = 23.

T1 sequence (Q06187 whole entry): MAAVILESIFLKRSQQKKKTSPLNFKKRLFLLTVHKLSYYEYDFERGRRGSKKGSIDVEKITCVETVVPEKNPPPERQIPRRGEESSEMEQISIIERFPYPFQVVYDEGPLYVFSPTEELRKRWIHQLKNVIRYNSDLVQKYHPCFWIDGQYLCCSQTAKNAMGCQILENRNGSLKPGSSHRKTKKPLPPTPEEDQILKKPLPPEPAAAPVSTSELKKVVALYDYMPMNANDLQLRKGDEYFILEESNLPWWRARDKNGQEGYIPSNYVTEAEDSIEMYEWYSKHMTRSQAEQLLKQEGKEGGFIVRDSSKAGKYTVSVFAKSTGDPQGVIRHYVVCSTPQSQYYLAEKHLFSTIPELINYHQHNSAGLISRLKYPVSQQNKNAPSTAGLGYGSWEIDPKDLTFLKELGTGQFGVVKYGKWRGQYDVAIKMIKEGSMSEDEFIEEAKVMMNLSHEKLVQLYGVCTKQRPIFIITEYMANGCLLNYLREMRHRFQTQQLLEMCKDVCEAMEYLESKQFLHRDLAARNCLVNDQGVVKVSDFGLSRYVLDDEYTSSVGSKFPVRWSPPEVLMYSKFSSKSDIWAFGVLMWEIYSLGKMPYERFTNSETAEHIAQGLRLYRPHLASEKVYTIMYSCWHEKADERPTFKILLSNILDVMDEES
T2 sequence (P35991 whole entry): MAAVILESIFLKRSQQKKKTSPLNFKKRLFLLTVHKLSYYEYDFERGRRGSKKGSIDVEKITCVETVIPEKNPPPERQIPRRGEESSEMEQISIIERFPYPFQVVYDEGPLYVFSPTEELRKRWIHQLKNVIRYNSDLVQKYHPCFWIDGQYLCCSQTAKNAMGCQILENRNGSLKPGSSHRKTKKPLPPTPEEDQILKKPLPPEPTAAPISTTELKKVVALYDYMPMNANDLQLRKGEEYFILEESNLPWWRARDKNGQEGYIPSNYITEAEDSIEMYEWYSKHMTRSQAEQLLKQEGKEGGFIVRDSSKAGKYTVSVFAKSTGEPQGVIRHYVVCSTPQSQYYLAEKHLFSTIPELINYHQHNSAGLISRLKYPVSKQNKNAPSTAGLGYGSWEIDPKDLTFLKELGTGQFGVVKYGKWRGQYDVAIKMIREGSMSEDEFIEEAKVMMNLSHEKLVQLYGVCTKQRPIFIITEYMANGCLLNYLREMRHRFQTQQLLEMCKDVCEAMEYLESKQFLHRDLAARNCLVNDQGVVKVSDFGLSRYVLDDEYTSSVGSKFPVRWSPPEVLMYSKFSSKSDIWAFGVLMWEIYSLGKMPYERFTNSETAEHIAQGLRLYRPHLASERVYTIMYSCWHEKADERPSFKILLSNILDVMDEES
EGFR, sequence (P00533 25-1210, species assumed): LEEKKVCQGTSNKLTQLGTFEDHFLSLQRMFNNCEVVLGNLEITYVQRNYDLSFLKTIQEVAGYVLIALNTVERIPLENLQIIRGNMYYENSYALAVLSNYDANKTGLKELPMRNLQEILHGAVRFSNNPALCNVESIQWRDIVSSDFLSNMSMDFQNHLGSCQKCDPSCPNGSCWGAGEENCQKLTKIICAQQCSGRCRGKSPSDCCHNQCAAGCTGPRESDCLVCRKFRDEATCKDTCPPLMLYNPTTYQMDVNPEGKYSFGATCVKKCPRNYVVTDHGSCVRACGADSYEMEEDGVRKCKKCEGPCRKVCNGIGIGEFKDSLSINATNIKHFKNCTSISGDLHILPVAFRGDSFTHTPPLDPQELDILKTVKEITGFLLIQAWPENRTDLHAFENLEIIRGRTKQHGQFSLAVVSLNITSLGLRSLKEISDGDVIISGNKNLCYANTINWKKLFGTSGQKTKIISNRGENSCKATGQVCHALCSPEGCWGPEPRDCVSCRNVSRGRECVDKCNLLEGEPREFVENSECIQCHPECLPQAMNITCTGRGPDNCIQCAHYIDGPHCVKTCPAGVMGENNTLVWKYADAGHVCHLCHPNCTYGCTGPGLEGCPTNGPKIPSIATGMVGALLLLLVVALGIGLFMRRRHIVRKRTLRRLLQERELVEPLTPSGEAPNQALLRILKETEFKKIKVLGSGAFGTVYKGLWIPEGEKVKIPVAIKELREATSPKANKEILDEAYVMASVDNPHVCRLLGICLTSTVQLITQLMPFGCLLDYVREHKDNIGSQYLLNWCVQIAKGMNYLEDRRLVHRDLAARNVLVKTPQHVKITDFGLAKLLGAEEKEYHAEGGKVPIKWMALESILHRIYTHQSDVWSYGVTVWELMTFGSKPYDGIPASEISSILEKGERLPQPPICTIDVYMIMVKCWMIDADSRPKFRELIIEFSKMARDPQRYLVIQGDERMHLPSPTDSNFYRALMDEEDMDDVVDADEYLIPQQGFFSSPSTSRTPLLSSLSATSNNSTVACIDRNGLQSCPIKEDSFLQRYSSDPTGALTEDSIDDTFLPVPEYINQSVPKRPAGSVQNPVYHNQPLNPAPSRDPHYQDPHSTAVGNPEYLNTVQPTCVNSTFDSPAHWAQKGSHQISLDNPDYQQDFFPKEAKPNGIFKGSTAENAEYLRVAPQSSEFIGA
Experimental for B-cell malignancies: All patients were treated until disease progression, unacceptable toxicity, or investigator/patient decision to withdraw.
All patients were treated until disease progression, unacceptable toxicity, or investigator/patient decision to withdraw study consent.
Evaluable patients had at least one response assessment.

In the case of `CC#CC(=O)N1CCC[C@H]1c1nc(-c2ccc(C(=O)Nc3ccccn3)cc2)c2c(N)nccn12` [acalabrutinib], in data set [1], the “% incidence of any grade Afib” value is on record as 9% and the “% incidence of atrial fibrillation (Afib), Grade 3 or greater” value is on record as 4.5%.

Regarding `CC(C)Oc1ccc(-c2nn([C@@H](C)c3oc4ccc(F)cc4c(=O)c3-c3cccc(F)c3)c3ncnc(N)c23)cc1F` [umbralisib, (S)-2-(1-(4-amino-3-(3-fluoro-4-isopropoxyphenyl)-1H-pyrazolo[3,4-d]pyrimidin-1-yl)ethyl)-6-fluoro-3-(3-fluorophenyl)-4H-chromen-4-one], the “doses with signs of clinical activity” value in data set [2] (in vivo) is recorded as no less than 800 mg each day. In data set [2] (setting [17]), the hepatic toxicity entry is recorded as “no reported hepatic toxicity” and the tolerability result is given as “well-tolerated”. Moreover, in data set [3] (combination arm, dose escalation), the “patients with dose reduction of umbralisib due to G3-4 ALT elevation” value was 3 patients.

As for `CC[C@H](Nc1ncnc2[nH]cnc12)c1nc2cccc(F)c2c(=O)n1-c1ccccc1` [Idelalisib], in [4], the “immune mediated colitis, grade 3” value is no less than 5%; the “pneumonitis, grade 3” value is no less than 4%; the “transaminitis, grade 3” value is listed as no less than 8%.

On to `CC#CC(=O)N1CC[C@@H](n2cc(-c3ccc(Oc4c(F)cccc4F)cc3)c3c(N)n[nH]c(=O)c32)C1` [TG-1701, (R)-4-amino-1-(1-(but-2-ynoyl)pyrrolidin-3-yl)-3-(4-(2,6-difluorophenoxy)phenyl)-1,6-dihydro-7H-pyrrolo[2,3-d]pyridazin-7-one], for which, in [5], the “% incidence of any grade Afib” value was 3.8% and the “% incidence of atrial fibrillation (Afib), Grade 3 or greater” value is reported as 1.9%. In addition, the “kinetics, dose proportionality of exposure” value in data set [6] is reported as “Linear kinetics”. On BTK [7], the 50% inhibitory concentration (IC50) is 0.003 µM. In data set [8], the “G≥3 neutropenia” value was found to be 8%; the “changes between pre- and on-treatment diastolic blood pressure nor QTc” value is “No significant changes”; the “patients with dose reduction due to treatment-related adverse events” value is given as “Four”; the “treatment discontinuations due to adverse events” value is “no treatment discontinuations due to adverse events”. Besides, the ventricular tachyarrhythmia result in [8] is recorded as “No cases”. The IC50 at EGFR was 0.27 µM. In data set [9], the IC50 is 0.369 µM. The concentration for half-maximal inhibition (IC50) in [10] is 0.449 µM. Besides, in the data set on DLBCL SU-DHL-6 cell line, the IC50 is 0.313 µM. Also, the “IgM-activated BCR pathway: phosphorylation of BTK, PLCy2, and ERK1/2” value in data set [11] is “inhibited”. Moreover, in the data set with JEKO cells, the CXCL12-dependent migration entry is on record as “blocked”, the “IgM-dependent CD69 expression” value is listed as “blocked” and the “adhesion of JEKO cells to VCAM-1” value is recorded as “blocked”. Besides, the “BTK occupancy in the spleen” value on BTK [12] is reported as “completely occupied”. The anti-tumor efficacy result in data set [13] is recorded as “potent anti-tumor activity equivalent to or greater than ibrutinib”. The “FcγR-driven ADCC and ADCP activity of anti-CD20 antibodies (e.g., ublituximab)” value with B-NHL cell lines [14] is on record as “does not impair”. In the data set on B-NHL cell lines [14] (compared to monotherapy ADCC activity of ublituximab, across cell lines), the “ADCC activity of ublituximab in the presence of the BTK inhibitor” value is “not significantly different”. Further, in the data set with B-NHL cell lines [15], the “ADCP activity of rituximab in the presence of the BTK inhibitor” value is recorded as “conserved to a greater extent”. Besides, in the data set on B-NHL cell lines [15] (increasing concentrations), the “ADCP activity of ublituximab in combination with the BTK inhibitor” value is “conserved at all dose levels tested”. The BTK occupancy entry at BTK [16] (100 mg QD) was “full BTK occupancy”. At BTK [16] (all dose levels studied), the “saturation of the BTK” value is roughly 100%. On BTK [16] (human, 100 mg QD), this molecule had a receptor occupancy at 100 mg of no less than 99%. In addition, in data set [3] (dose-expansion 200 mg), the “treatment discontinuation: Death” value was 1^‡ N(%). Also, in data set [3] (dose-expansion 300 mg), the “treatment discontinuation: Death” value is given as 2^‡ N(%). In the data set with B-cell malignancies (CLL 200-mg and 300-mg cohorts), the “hematologic variables in patients with anemia and thrombocytopenia at baseline” value was “sustained improvement”. Besides, in the data set with B-cell malignancies (CLL monotherapy patients), the “lymphocytosis resolution to normal or less than 50% of baseline” value is 57.1%. The molecule further gave an ORR in the data set on B-cell malignancies (CLL patients evaluable for response, Example 2) of 95.6%. Moreover, the “median duration of response” value in the data set with B-cell malignancies (CLL patients, Example 2) is recorded as “has not been reached”. The “treatment discontinuation: Progression by iwCLL criteria” value with B-cell malignancies (CLL, dose-escalation 100-400 mg, N = 6) is 1 N(%). Moreover, the “complete responses (CR) confirmed” value in the data set on B-cell malignancies (TG-1701 monotherapy) is given as “No complete responses”. Further, in the data set on B-cell malignancies (setting [18]), the ORR came to 95% and the Stable disease was 1 (5) N (%). Moreover, the Partial response in the data set with B-cell malignancies (monotherapy 200 mg, CLL cohort, N = 20, includes PR and PR-L) is recorded as 19 (95)^b N (%). In addition, in the data set on B-cell malignancies (setting [19]), the ORR worked out at 50%, the Partial response was 9 (50) N (%), the Progressive disease is 3 (17) N (%) and the Stable disease is listed as 6 (33) N (%). Besides, in the data set on B-cell malignancies (setting [20]), the Minor response is recorded as 6 (32) N (%), the ORR is reported as 95%, the Partial response is on record as 12 (63) N (%) and the Progressive disease is listed as 1 (5) N (%). In the data set on B-cell malignancies (setting [21]), the Minor response is 1 (4) N (%), the ORR amounted to 52%, the Partial response was 11 (48) N (%) and the Progressive disease was 3 (13) N (%). For the same molecule, in the data set on B-cell malignancies (setting [21]), the Stable disease was 8 (35) N (%).

B1: Ublituximab: chimeric monoclonal antibody targeting a unique epitope on the CD20 antigen, glycoengineered for enhanced affinity for Fcγ RIIIa receptors (antibody, V domains shown)
VH: QAYLQQSGAELVRPGASVKMSCKASGYTFTSYNMHWVKQTPRQGLEWIGGIYPGNGDTSYNQKFKGKATLTVGKSSSTAYMQLSSLTSEDSAVYFCARYDYNYAMDYWGQGTSVTVSS
VL: QIVLSQSPAILSASPGEKVTMTCRASSSVSYMHWYQQKPGSSPKPWIYATSNLASGVPARFSGSGSGTSYSFTISRVEAEDAATYYCQQWTFNPPTFGGGTRLEIK
modifications: Ublituximab Variable heavy chain; Ublituximab Variable light chain
Turning to B1, the “ADCC activity compared with rituximab and ofatumab” value with CD20 antigen is reported as “greater”.
